According to patent US8802597B2, “Herbicidal pyrimidines” (E I du Pont de Nemours and Company, priority 2003, dated 2014):

Legend:
Assay in all cases: Test D pre/postemergence
Type in all cases: in vivo
Details in all cases: scale 0 to 100 (100 = complete control)
[1] = system: Russian thistle (Salsola kali)
From the text: (§1) Seeds of plant species selected from catchweed bedstraw (galium; Galium aparine), common chickweed (Stellaria media), kochia (Kochia scoparia), lambsquarters (Chenopodium album), pigweed (Amaranthus retroflexus), Russian thistle (Salsola kali), wild buckwheat (Polygonum convolvulus), wild mustard (Sinapis arvensis), winter barley (Hordeum vulgare), and wheat (Triticum aestivum) were planted and treated preemergence with test chemicals formulated in a non-phytotoxic solvent mixture which included a surfactant.
(§2) At the same time, plants selected from these crop and weed species were treated with postemergence applications of some of the test chemicals formulated in the same manner. Plants ranged in height from 2 to 18 cm (1- to 4-leaf stage) for postemergence treatments. Treated plants and controls were maintained in a controlled growth environment for 15 to 25 days after which time all species were compared to controls and visually evaluated. Plant response ratings, summarized in Table D, are based on a scale of 0 to 100 where 0 is no effect and 100 is complete control. A dash (-) response means no test result.

[2] = system: catchweed bedstraw (galium; Galium aparine)
From the text: as §1, §2

[3] = system: common chickweed (Stellaria media)
From the text: as §1, §2

kochia (Kochia scoparia) = system: kochia (Kochia scoparia)
From the text: as §1, §2

[4] = system: lambsquarters (Chenopodium album)
From the text: as §1, §2

[5] = system: pigweed (Amaranthus retroflexus)
From the text: as §1, §2

[6] = system: wheat (Triticum aestivum)
From the text: as §1, §2

[7] = system: wild buckwheat (Polygonum convolvulus)
From the text: as §1, §2

[8] = system: wild mustard (Sinapis arvensis)
From the text: as §1, §2

SMILES: CCOC(=O)Cc1nc(C2CC2)nc(N=CN(C)C)c1Br [Compound 33]
- Plant response rating, Russian Thistle ([1]; Postemergence, 62 g ai/ha): 30
- Plant response rating, Russian Thistle ([1]; Postemergence, 125 g ai/ha): 40
- Plant response rating, Russian Thistle ([1]; Postemergence, 250 g ai/ha): 40
- Plant response rating, Russian Thistle ([1]; Preemergence, 62 g ai/ha): 55
- Plant response rating, Russian Thistle ([1]; Preemergence, 125 g ai/ha): 60
- Plant response rating, Russian Thistle ([1]; Preemergence, 250 g ai/ha): 85
- Plant response rating, Galium ([2]; Postemergence, 62 g ai/ha): 55
- Plant response rating, Galium ([2]; Postemergence, 125 g ai/ha): 60
- Plant response rating, Galium ([2]; Postemergence, 250 g ai/ha): 65
- Plant response rating, Galium ([2]; Preemergence, 62 g ai/ha): 70
- Plant response rating, Galium ([2]; Preemergence, 125 g ai/ha): 80
- Plant response rating, Galium ([2]; Preemergence, 250 g ai/ha): 100
- Plant response rating, Chickweed ([3]; Postemergence, 62 g ai/ha): 40
- Plant response rating, Chickweed ([3]; Postemergence, 125 g ai/ha): 50
- Plant response rating, Chickweed ([3]; Postemergence, 250 g ai/ha): 60
- Plant response rating, Chickweed ([3]; Preemergence, 250 g ai/ha): 65
- Plant response rating, Kochia (kochia (Kochia scoparia); Postemergence, 62 g ai/ha): 50
- Plant response rating, Kochia (kochia (Kochia scoparia); Postemergence, 125 g ai/ha): 50
- Plant response rating, Kochia (kochia (Kochia scoparia); Postemergence, 250 g ai/ha): 50
- Plant response rating, Kochia (kochia (Kochia scoparia); Preemergence, 62 g ai/ha): 60
- Plant response rating, Kochia (kochia (Kochia scoparia); Preemergence, 125 g ai/ha): 65
- Plant response rating, Kochia (kochia (Kochia scoparia); Preemergence, 250 g ai/ha): 65
- Plant response rating, Lambsquarters ([4]; Postemergence, 62 g ai/ha): 30
- Plant response rating, Lambsquarters ([4]; Postemergence, 125 g ai/ha): 30
- Plant response rating, Lambsquarters ([4]; Postemergence, 250 g ai/ha): 45
- Plant response rating, Lambsquarters ([4]; Preemergence, 62 g ai/ha): 60
- Plant response rating, Lambsquarters ([4]; Preemergence, 125 g ai/ha): 65
- Plant response rating, Lambsquarters ([4]; Preemergence, 250 g ai/ha): 65
- Plant response rating, Pigweed ([5]; Postemergence, 62 g ai/ha): 45
- Plant response rating, Pigweed ([5]; Postemergence, 125 g ai/ha): 55
- Plant response rating, Pigweed ([5]; Postemergence, 250 g ai/ha): 55
- Plant response rating, Pigweed ([5]; Preemergence, 62 g ai/ha): 60
- Plant response rating, Pigweed ([5]; Preemergence, 125 g ai/ha): 70
- Plant response rating, Pigweed ([5]; Preemergence, 250 g ai/ha): 90
- Plant response rating, Wheat ([6]; Postemergence, 62 g ai/ha): 35
- Plant response rating, Wheat ([6]; Postemergence, 125 g ai/ha): 40
- Plant response rating, Wheat ([6]; Postemergence, 250 g ai/ha): 45
- Plant response rating, Wheat ([6]; Preemergence, 62 g ai/ha): 15
- Plant response rating, Wheat ([6]; Preemergence, 125 g ai/ha): 35
- Plant response rating, Wheat ([6]; Preemergence, 250 g ai/ha): 55
- Plant response rating, Buckwheat, Wild ([7]; Postemergence, 62 g ai/ha): 40
- Plant response rating, Buckwheat, Wild ([7]; Postemergence, 125 g ai/ha): 50
- Plant response rating, Buckwheat, Wild ([7]; Postemergence, 250 g ai/ha): 55
- Plant response rating, Buckwheat, Wild ([7]; Preemergence, 62 g ai/ha): 55
- Plant response rating, Buckwheat, Wild ([7]; Preemergence, 125 g ai/ha): 65
- Plant response rating, Buckwheat, Wild ([7]; Preemergence, 250 g ai/ha): 65
- Plant response rating, Mustard, Wild ([8]; Postemergence, 62 g ai/ha): 50
- Plant response rating, Mustard, Wild ([8]; Postemergence, 125 g ai/ha): 50
- Plant response rating, Mustard, Wild ([8]; Postemergence, 250 g ai/ha): 50
- Plant response rating, Mustard, Wild ([8]; Preemergence, 62 g ai/ha): 65
- Plant response rating, Mustard, Wild ([8]; Preemergence, 125 g ai/ha): 65
- Plant response rating, Mustard, Wild ([8]; Preemergence, 250 g ai/ha): 65

SMILES: COC(=O)c1nc(C2CC2)nc(NO)c1Br [Compound 35]
- Plant response rating, Russian Thistle ([1]; Postemergence, 62 g ai/ha): 100
- Plant response rating, Russian Thistle ([1]; Postemergence, 125 g ai/ha): 100
- Plant response rating, Russian Thistle ([1]; Postemergence, 250 g ai/ha): 100
- Plant response rating, Russian Thistle ([1]; Preemergence, 62 g ai/ha): 85
- Plant response rating, Russian Thistle ([1]; Preemergence, 125 g ai/ha): 100
- Plant response rating, Russian Thistle ([1]; Preemergence, 250 g ai/ha): 100
- Plant response rating, Galium ([2]; Postemergence, 62 g ai/ha): 100
- Plant response rating, Galium ([2]; Postemergence, 125 g ai/ha): 100
- Plant response rating, Galium ([2]; Postemergence, 250 g ai/ha): 100
- Plant response rating, Galium ([2]; Preemergence, 62 g ai/ha): 85
- Plant response rating, Galium ([2]; Preemergence, 125 g ai/ha): 100
- Plant response rating, Galium ([2]; Preemergence, 250 g ai/ha): 100
- Plant response rating, Chickweed ([3]; Postemergence, 62 g ai/ha): 80
- Plant response rating, Chickweed ([3]; Postemergence, 125 g ai/ha): 80
- Plant response rating, Chickweed ([3]; Postemergence, 250 g ai/ha): 85
- Plant response rating, Chickweed ([3]; Preemergence, 62 g ai/ha): 60
- Plant response rating, Chickweed ([3]; Preemergence, 125 g ai/ha): 100
- Plant response rating, Chickweed ([3]; Preemergence, 250 g ai/ha): 100
- Plant response rating, Kochia (kochia (Kochia scoparia); Postemergence, 62 g ai/ha): 80
- Plant response rating, Kochia (kochia (Kochia scoparia); Postemergence, 125 g ai/ha): 85
- Plant response rating, Kochia (kochia (Kochia scoparia); Postemergence, 250 g ai/ha): 85
- Plant response rating, Kochia (kochia (Kochia scoparia); Preemergence, 62 g ai/ha): 75
- Plant response rating, Kochia (kochia (Kochia scoparia); Preemergence, 125 g ai/ha): 100
- Plant response rating, Kochia (kochia (Kochia scoparia); Preemergence, 250 g ai/ha): 100
- Plant response rating, Lambsquarters ([4]; Postemergence, 62 g ai/ha): 100
- Plant response rating, Lambsquarters ([4]; Postemergence, 125 g ai/ha): 100
- Plant response rating, Lambsquarters ([4]; Postemergence, 250 g ai/ha): 100
- Plant response rating, Lambsquarters ([4]; Preemergence, 62 g ai/ha): 65
- Plant response rating, Lambsquarters ([4]; Preemergence, 125 g ai/ha): 75
- Plant response rating, Lambsquarters ([4]; Preemergence, 250 g ai/ha): 80
- Plant response rating, Pigweed ([5]; Postemergence, 62 g ai/ha): 100
- Plant response rating, Pigweed ([5]; Postemergence, 125 g ai/ha): 100
- Plant response rating, Pigweed ([5]; Postemergence, 250 g ai/ha): 100
- Plant response rating, Pigweed ([5]; Preemergence, 62 g ai/ha): 65
- Plant response rating, Pigweed ([5]; Preemergence, 125 g ai/ha): 80
- Plant response rating, Pigweed ([5]; Preemergence, 250 g ai/ha): 85
- Plant response rating, Wheat ([6]; Postemergence, 62 g ai/ha): 0
- Plant response rating, Wheat ([6]; Postemergence, 125 g ai/ha): 65
- Plant response rating, Wheat ([6]; Postemergence, 250 g ai/ha): 70
- Plant response rating, Wheat ([6]; Preemergence, 62 g ai/ha): 35
- Plant response rating, Wheat ([6]; Preemergence, 125 g ai/ha): 40
- Plant response rating, Wheat ([6]; Preemergence, 250 g ai/ha): 50
- Plant response rating, Buckwheat, Wild ([7]; Postemergence, 62 g ai/ha): 60
- Plant response rating, Buckwheat, Wild ([7]; Postemergence, 125 g ai/ha): 70
- Plant response rating, Buckwheat, Wild ([7]; Postemergence, 250 g ai/ha): 80
- Plant response rating, Buckwheat, Wild ([7]; Preemergence, 62 g ai/ha): 55
- Plant response rating, Buckwheat, Wild ([7]; Preemergence, 125 g ai/ha): 60
- Plant response rating, Buckwheat, Wild ([7]; Preemergence, 250 g ai/ha): 65
- Plant response rating, Mustard, Wild ([8]; Postemergence, 62 g ai/ha): 75
- Plant response rating, Mustard, Wild ([8]; Postemergence, 125 g ai/ha): 75
- Plant response rating, Mustard, Wild ([8]; Postemergence, 250 g ai/ha): 75
- Plant response rating, Mustard, Wild ([8]; Preemergence, 62 g ai/ha): 65
- Plant response rating, Mustard, Wild ([8]; Preemergence, 125 g ai/ha): 70
- Plant response rating, Mustard, Wild ([8]; Preemergence, 250 g ai/ha): 75
